“And” between values parts separate entries of the source, which are not always exact repeats. Equal entries are not always repeated.
Tests used:
[1] = test system: Escherichia coli WP2 uvrA pKM101; experiment: Bacterial mutation test, Escherichia coli; format: cell-based; details: up to 5000 μg/plate, absence and presence of S-9
Method: (§1) These conditions included treatments at concentrations up to 5000 μg/plate (the maximum recommended concentration according to current regulatory guidelines), in the absence and in the presence of a rat liver metabolic activation system (S-9).

[2] = test system: patients with postpartum depression (PPD); experiment: Clinical trial of inhaled 5-MeO-DMT in postpartum depression; details: PPD patient
Method: The single-arm, open-label clinical trial will involve 15 adult female patients with clinically diagnosed postpartum depression (PPD).
The second dose (12 mg) will only be administered if: • a. […] The 6 mg dose was safe and well-tolerated according to the investigator, • c. Any psychoactive effects (PsE) of the prior dose have subsided, and • d. Pre-dose vital parameters and forced expiratory volume in one second (FEV1) are in normal range, or if outside of the normal range, are not clinically significant according to the investigator. • 3. Similarly, a third dose (18 mg) will only be administered if: • a. […] The 12 mg dose was safe and well-tolerated according to the investigator, and • c. Any PsE of the prior dose have subsided, and • d. Pre-dose vital parameters and forced expiratory volume in one second (FEV1) are in normal range, or if outside of the normal range, are not clinically significant according to the investigator.
The patients will be assessed for a peak psychedelic experience (based on a patient-scored visual analogue scale, the PE scale), sedation, and other endpoints after dosing. Follow-up visits are planned for Day 1, and Day 7 after the dosing day.
The following criteria must be met by all patients considered for clinical trial participation: • 1. Is female and in the age range between 18 and 45 years (inclusive) at screening. • 2. Has a body mass index (BMI) in the range of 18.5 and 35 kg/m^2 (inclusive) at screening. • 3. Meets the trial criteria for PPD as assessed by a trial psychiatrist or registered psychologist: • a. Diagnosis of Major Depressive Disorder without psychotic features, confirmed by the Mini-International Neuropsychiatric Interview (MINI), with peri-partum onset that began no earlier than gestation and no later than the first 4 weeks postpartum. • b. Has a Montgomery-Åsberg Depression Rating Scale (MADRS) total score of equal to or greater than 28 at screening and pre-dose on Day 0. • 6. […] Patients must have a negative pregnancy test at screening and on the pre-test day (Day −1). • 5. Is willing to delay start of other antidepressant or anxiety medication until after the end of the trial at Day 7 and agrees to keep any psychotherapy unchanged during the trial.
A potential patient who meets any of the following key exclusion criteria will be excluded from participation in this trial: • 1. Has, based on history, psychiatric assessment, and evaluation of the MINI, a current or prior diagnosis of bipolar disorder, a manic or hypomanic episode, a psychotic disorder, Major Depressive Disorder (MDD) or other mood disorder with psychotic features, obsessive compulsive disorder, post-traumatic stress disorder (PTSD), autism spectrum disorder, borderline personality disorder, schizophrenia, delusional disorder, paranoid personality disorder, schizoaffective disorder, clinically significant intellectual disability, or any other psychiatric comorbidity that renders the patient unsuitable for the trial according to the investigator's judgment. • 2. Has one or more first or second degree relatives with a current or previously diagnosed bipolar disorder, psychotic disorder or other mood disorder (including MDD) with psychotic features. • 3. Is in the judgement of a trial psychiatrist or registered psychologist, at significant risk for suicide based on history, psychiatric assessment, and evaluation of suicidal ideation and suicidal behaviour based on the Columbia-Suicide Severity Rating Scale (C-SSRS). • 4. Has taken anti-depressive medication within 14 days or 5 half-lives (whichever is longer) prior to dosing (exception: within the last 5 weeks in the case of fluoxetine). • 5.

[3] = test system: Salmonella typhimurium TA98, TA100, TA1535 and TA1537; experiment: Bacterial mutation test, Salmonella typhimurium; format: cell-based; details: up to 5000 μg/plate, absence and presence of S-9
Method: as §1

[4] = Pharmacokinetics of 5-MeO-DMT and bufotenine after inhalation; format: in vivo, human
Method: Blood samples were obtained at 1; 2; 4; 7; 10; 15; 20; 30; 45 min and 1; 1.5; 2; 3; 4 hours after administration.
PK parameters were generated by algebraic analysis of the concentration versus time plots for each individual. The analysis was carried out using the software Phoenix WinNonlin 6.3.

Q: For `COc1ccc2[nH]cc(CCN(C)C)c2c1` [5-MeO-DMT], which Induction of mutation [1] is on record?
A: did not induce mutation

Q: What about the “BIMF Adjustment Δ (Day 7)” value [2] of the same compound?
A: 1

Q: And the “BIMF Infant Care Δ (Day 7)” value [2]?
A: 0

Q: And the “BIMF Management Δ (Day 7)” value [2]?
A: 5

Q: And the “BIMF Mother-Child Interaction Δ (Day 7)” value [2]?
A: 2

Q: What about the “BIMF Psychological Well-being Δ (Day 7)” value [2] of the same compound?
A: 9

Q: What about the “BIMF Self-Care Δ (Day 7)” value [2] of the same compound?
A: 4

Q: What about the “BIMF Social Support Δ (Day 7)” value [2] of the same compound?
A: 1

Q: What about the “BIMF TOTAL Δ (Day 7)” value [2] of the same compound?
A: 13

Q: What about the “ECG (3 hours), safety laboratory analyses (7 days), CADSS (3 hours, 1 day, 7 days)” value [2] of the same compound?
A: unremarkable

Q: And the “MADRS response and MADRS remission criteria” value [2]?
A: fulfilled standard criteria for MADRS response

Q: What about the “Reported adverse events (cramping left abdominal pain and headache, Day 0)” value [2] of the same compound?
A: mild, short-lasting and resolved spontaneously

Q: What about the “Time to clinical remission after administration according to the IDR” value [2] of the same compound?
A: ≤ 2 h

Q: What about the “Tolerability of the inhalation procedure” value [2] of the same compound?
A: well tolerated with no inhalation-related adverse events

Q: What about the “Total MADRS improvement” value ([2]; 2 hr) of the same compound?
A: 24

Q: What about the “Total MADRS score” value ([2]; 2 hr, baseline 29) of the same compound?
A: 5

Q: And the “BPRS Tension improvement” value ([2]; Day 1)?
A: 5

Q: What about the “Total MADRS improvement” value ([2]; Day 1) of the same compound?
A: 29

Q: What about the “Total MADRS score” value ([2]; Day 1, baseline 29) of the same compound?
A: 0

Q: What about the “BIMF Adjustment % Improvement” value ([2]; Day 7) of the same compound?
A: 20.00%

Q: What about the “BIMF Infant Care % Improvement” value ([2]; Day 7) of the same compound?
A: 0.00%

Q: And the “BIMF Management % Improvement” value ([2]; Day 7)?
A: 18% and 17.86%

Q: And the “BIMF Mother-Child Interaction % Improvement” value ([2]; Day 7)?
A: 13.33%

Q: What about the “BIMF Psychological Well-being % Improvement” value ([2]; Day 7) of the same compound?
A: 20.45%

Q: What about the “BIMF Self-Care % Improvement” value ([2]; Day 7) of the same compound?
A: 44% and 44.44%

Q: And the “BIMF Social Support % Improvement” value ([2]; Day 7)?
A: 5.88%

Q: What about the “BIMF total score improvement” value ([2]; Day 7) of the same compound?
A: 14%

Q: And the “Total MADRS improvement” value ([2]; Day 7)?
A: 28

Q: And the “BIMF functional domain Adjustment score” value ([2]; Day 7, Day 0 score 5, maximum 12)?
A: 6

Q: And the “BIMF item 6 (people in my life that I can trust to care for my baby) score” value ([2]; Day 7, Day 0 score 6)?
A: 6

Q: What about the “BIMF functional domain Self-Care score” value ([2]; Day 7, Day 0 score 9, maximum 18) of the same compound?
A: 13

Q: And the “BIMF functional domain Infant Care score” value ([2]; Day 7, Day 0 score 12, maximum 12)?
A: 12

Q: And the “BIMF functional domain Mother-Child Interaction score” value ([2]; Day 7, Day 0 score 15, maximum 18)?
A: 17

Q: And the “BIMF functional domain Social Support score” value ([2]; Day 7, Day 0 score 17, maximum 18)?
A: 18

Q: And the “BIMF functional domain Management score” value ([2]; Day 7, Day 0 score 28, maximum 36)?
A: 33

Q: And the “BIMF functional domain Psychological Well-being score” value ([2]; Day 7, Day 0 score 44, maximum 60)?
A: 53

Q: What about the “Total MADRS score” value ([2]; Day 7, baseline 29) of the same compound?
A: 1

Q: And the “BPRS Tension improvement” value ([2]; Discharge)?
A: 5

Q: And the “Changes in vital parameters” value ([2]; shortly after administration)?
A: temporary, clinically non-relevant increase in heart rate and blood pressure

Q: What about the Induction of mutation [3] of the same compound?
A: did not induce mutation

Q: And the “Detectability in the plasma” value ([4]; after 3 hours, 6, 12, 18 mg)?
A: no longer detectable

Q: What about the “Accumulation upon repeated administration” value ([4]; repeated within 1 to 4 hours) of the same compound?
A: No accumulation is observed
